Source: PubChem BioAssay (NCI)
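Following 48 hours of exposure in 96-well plates, responses at five concentrations were used to interpolate endpoints linearly. The concentration for 50% growth inhibition is given as GI50. The concentration for full growth arrest is given as TGI.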

Assays:
Experiment in all cases: NCI-60 cell line screen, 48 h
786-0 renal = test system: 786-0 renal
A498 renal = test system: A498 renal
A549 NSCLC = test system: A549 NSCLC
ACHN renal = test system: ACHN renal
BT-549 breast = test system: BT-549 breast
CAKI-1 renal = test system: CAKI-1 renal
CCRF-CEM leukemia = test system: CCRF-CEM leukemia
COLO 205 colon = test system: COLO 205 colon
DU-145 prostate = test system: DU-145 prostate
EKVX NSCLC = test system: EKVX NSCLC
HCC-2998 colon = test system: HCC-2998 colon
HCT-116 colon = test system: HCT-116 colon
HCT-15 colon = test system: HCT-15 colon
HL-60(TB) leukemia = test system: HL-60(TB) leukemia
HOP-62 NSCLC = test system: HOP-62 NSCLC
HOP-92 NSCLC = test system: HOP-92 NSCLC
HS 578T breast = test system: HS 578T breast
HT29 colon = test system: HT29 colon
IGROV1 ovarian = test system: IGROV1 ovarian
K-562 leukemia = test system: K-562 leukemia
KM12 colon = test system: KM12 colon
LOX IMVI melanoma = test system: LOX IMVI melanoma
M14 melanoma = test system: M14 melanoma
MALME-3M melanoma = test system: MALME-3M melanoma
MCF7 breast = test system: MCF7 breast
MDA-MB-231 breast = test system: MDA-MB-231 breast
MDA-MB-435 = test system: MDA-MB-435
MOLT-4 leukemia = test system: MOLT-4 leukemia
NCI-H226 lung = test system: NCI-H226 lung
NCI-H23 lung = test system: NCI-H23 lung
NCI-H460 lung = test system: NCI-H460 lung
NCI-H522 lung = test system: NCI-H522 lung
NCI/ADR-RES ovarian = test system: NCI/ADR-RES ovarian
OVCAR-3 ovarian = test system: OVCAR-3 ovarian
OVCAR-4 ovarian = test system: OVCAR-4 ovarian
OVCAR-5 ovarian = test system: OVCAR-5 ovarian
OVCAR-8 ovarian = test system: OVCAR-8 ovarian
PC-3 prostate = test system: PC-3 prostate
RPMI-8226 leukemia = test system: RPMI-8226 leukemia
RXF 393 renal = test system: RXF 393 renal
SF-268 CNS = test system: SF-268 CNS
SF-295 CNS = test system: SF-295 CNS
SF-539 CNS = test system: SF-539 CNS
SK-MEL-2 melanoma = test system: SK-MEL-2 melanoma
SK-MEL-28 melanoma = test system: SK-MEL-28 melanoma
SK-MEL-5 melanoma = test system: SK-MEL-5 melanoma
SK-OV-3 ovarian = test system: SK-OV-3 ovarian
SN12C renal = test system: SN12C renal
SNB-19 CNS = test system: SNB-19 CNS
SNB-75 CNS = test system: SNB-75 CNS
SR leukemia = test system: SR leukemia
SW-620 colon = test system: SW-620 colon
T-47D breast = test system: T-47D breast
TK-10 renal = test system: TK-10 renal
U251 CNS = test system: U251 CNS
UACC-257 melanoma = test system: UACC-257 melanoma
UACC-62 melanoma = test system: UACC-62 melanoma
UO-31 renal = test system: UO-31 renal

O=C1Nc2ccccc2SC1C1SC(=S)N(Cc2ccccc2)C1=O (stereo unspecified)
GI50 (786-0 renal): 5.06 µM
TGI (786-0 renal): 16.5 µM
GI50 (A498 renal): 14.6 µM
TGI (A498 renal): 32.9 µM
GI50 (A549 NSCLC): 16 µM
TGI (A549 NSCLC): > 51.4 µM
GI50 (ACHN renal): 7.41 µM
TGI (ACHN renal): 20.3 µM
GI50 (BT-549 breast): 5.71 µM
TGI (BT-549 breast): 22.3 µM
GI50 (CAKI-1 renal): 4.53 µM
TGI (CAKI-1 renal): 17.6 µM
GI50 (CCRF-CEM leukemia): 1.76 µM
TGI (CCRF-CEM leukemia): > 29.8 µM
GI50 (COLO 205 colon): 3.38 µM
TGI (COLO 205 colon): 17.8 µM
GI50 (DU-145 prostate): 2.26 µM
TGI (DU-145 prostate): 5.58 µM
GI50 (EKVX NSCLC): 21.7 µM
TGI (EKVX NSCLC): 53.2 µM
GI50 (HCC-2998 colon): 5.33 µM
TGI (HCC-2998 colon): 17.1 µM
GI50 (HCT-116 colon): 2.45 µM
TGI (HCT-116 colon): 9.28 µM
GI50 (HCT-15 colon): 3.37 µM
TGI (HCT-15 colon): 16 µM
GI50 (HL-60(TB) leukemia): 3.46 µM
TGI (HL-60(TB) leukemia): 32.2 µM
GI50 (HOP-62 NSCLC): 6.62 µM
TGI (HOP-62 NSCLC): 19.7 µM
GI50 (HOP-92 NSCLC): 4.21 µM
TGI (HOP-92 NSCLC): 24.7 µM
GI50 (HS 578T breast): 5.52 µM
TGI (HS 578T breast): 31.2 µM
GI50 (HT29 colon): 3.98 µM
TGI (HT29 colon): 39.8 µM
GI50 (IGROV1 ovarian): 3.37 µM
TGI (IGROV1 ovarian): 16.5 µM
GI50 (K-562 leukemia): 2.65 µM
TGI (K-562 leukemia): > 81.1 µM
GI50 (KM12 colon): 0.458 µM
TGI (KM12 colon): 1.99 µM
GI50 (LOX IMVI melanoma): 2.08 µM
TGI (LOX IMVI melanoma): 7.78 µM
GI50 (M14 melanoma): 4.6 µM
TGI (M14 melanoma): 19.8 µM
GI50 (MALME-3M melanoma): 15.9 µM
TGI (MALME-3M melanoma): > 61.5 µM
GI50 (MCF7 breast): 1.21 µM
TGI (MCF7 breast): 14.4 µM
GI50 (MDA-MB-231 breast): 3.65 µM
TGI (MDA-MB-231 breast): 12.9 µM
GI50 (MDA-MB-435): 3.04 µM
TGI (MDA-MB-435): 15.5 µM
GI50 (MOLT-4 leukemia): 3.57 µM
TGI (MOLT-4 leukemia): > 36 µM
GI50 (NCI-H226 lung): 17 µM
TGI (NCI-H226 lung): 35 µM
GI50 (NCI-H23 lung): 11.8 µM
TGI (NCI-H23 lung): 35.2 µM
GI50 (NCI-H460 lung): 8.21 µM
TGI (NCI-H460 lung): 29.8 µM
GI50 (NCI-H522 lung): 5.29 µM
TGI (NCI-H522 lung): 19.1 µM
GI50 (NCI/ADR-RES ovarian): 23.6 µM
TGI (NCI/ADR-RES ovarian): 97.4 µM
GI50 (OVCAR-3 ovarian): 2.37 µM
TGI (OVCAR-3 ovarian): 6.31 µM
GI50 (OVCAR-4 ovarian): 13.9 µM
TGI (OVCAR-4 ovarian): 33.7 µM
GI50 (OVCAR-5 ovarian): 20.2 µM
TGI (OVCAR-5 ovarian): 37 µM
GI50 (OVCAR-8 ovarian): 23.7 µM
TGI (OVCAR-8 ovarian): > 88.2 µM
GI50 (PC-3 prostate): 5.74 µM
TGI (PC-3 prostate): > 43 µM
GI50 (RPMI-8226 leukemia): 0.488 µM
TGI (RPMI-8226 leukemia): 7.39 µM
GI50 (RXF 393 renal): 4.21 µM
TGI (RXF 393 renal): > 27.7 µM
GI50 (SF-268 CNS): 3.37 µM
TGI (SF-268 CNS): 11.4 µM
GI50 (SF-295 CNS): 10.2 µM
TGI (SF-295 CNS): 40.2 µM
GI50 (SF-539 CNS): 3.79 µM
TGI (SF-539 CNS): 12.8 µM
GI50 (SK-MEL-2 melanoma): 18.6 µM
TGI (SK-MEL-2 melanoma): 37.4 µM
GI50 (SK-MEL-28 melanoma): 4.99 µM
TGI (SK-MEL-28 melanoma): 18 µM
GI50 (SK-MEL-5 melanoma): 13.7 µM
TGI (SK-MEL-5 melanoma): 29.3 µM
GI50 (SK-OV-3 ovarian): 22.9 µM
TGI (SK-OV-3 ovarian): > 100 µM
GI50 (SN12C renal): 4.79 µM
TGI (SN12C renal): 15.2 µM
GI50 (SNB-19 CNS): 11.2 µM
TGI (SNB-19 CNS): 29.5 µM
GI50 (SNB-75 CNS): 10.5 µM
TGI (SNB-75 CNS): 24.6 µM
GI50 (SR leukemia): 4.03 µM
TGI (SR leukemia): > 78.2 µM
GI50 (SW-620 colon): 2.39 µM
TGI (SW-620 colon): 13.6 µM
GI50 (T-47D breast): 0.815 µM
TGI (T-47D breast): 21.1 µM
GI50 (TK-10 renal): 5.71 µM
TGI (TK-10 renal): 22 µM
GI50 (U251 CNS): 3.14 µM
TGI (U251 CNS): 12.2 µM
GI50 (UACC-257 melanoma): 20.1 µM
TGI (UACC-257 melanoma): 39 µM
GI50 (UACC-62 melanoma): 10.6 µM
TGI (UACC-62 melanoma): 23.3 µM
GI50 (UO-31 renal): 5.63 µM
TGI (UO-31 renal): 22.8 µM
